The values below come from patent US11384075B2, “Quinolinone compounds” (Janssen Pharmaceutica NV, priority 2017, dated 2022).

Assay [1] has as its target T1, human FGFR3 wild type enzyme (cytoplasmic domain) (Homo sapiens, UniProt P22607).
T1 construct: human FGFR3 wild type enzyme (cytoplasmic domain, from Carna Biosciences); purchased Carna Biosciences
In words: FGFR3 wild type mobility shift assay (enzymatic assay). Format: biochemical. Conditions: 75 μM ATP, 50 minutes at 30° C., Caliper EZ reader II. The procedure, abridged:
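Cytoplasmic domain of human wild-type FGFR3 (0.04 ng/μL) with 75 μM ATP and 1 μM FL-peptide 30, pH 7.4 HEPES/MgCl2 buffer, 1% DMSO, 50 min at 30 °C, EDTA-stopped. Substrate-product conversion read by mobility shift. IC50, pIC50 and Hill slope from 10-point 4-fold dilutions starting at 10 μM.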

For assay [2], the system named is NIH/3T3 cells overexpressing FGFR3 WT-TACC3 fusion protein. In words: NIH/3T3 FGFR3 WT-TACC3 cellular phospho-ERK assay (in vitro PD assay). It is filed as cell-based. Conditions: Mus musculus, NIH3T3; 1-hr incubation, AlphaLISA SureFire Ultra p-ERK1/2 (Thr202/Tyr204); read-out: NIH/3T3 FGFR3 WT-TACC3 pERK (IC50). The protocol: NIH/3T3 FGFR3 WT-TACC3 Cellular Phospho-ERK Assay (In Vitro PD Assay)
(§1) 50 μL of cell suspension (NIH/3T3 cells overexpressing FGFR3 WT-TACC3 fusion protein) (total 10,000 cells per well in growth medium (DMEM containing 1% Glutamax, 10% FBS and 1% Pen/Strep)) was seeded in a 384-well plate. After overnight incubation at 37° C. and 5% CO2, 5.5 μL of growth medium containing 10× testing compound was added into cell cultures (10 dose points with 4× serial dilution, starting with 10 μM, 0.1% DMSO final). After 1-hr incubation at 37° C. and 5% CO2, the medium was depleted and AlphaLISA SureFire Ultra p-ERK1/2 (Thr202/Tyr204) Assay Kit (from PerkinElmer) was applied for phospho-ERK level detection according to the kit instructions. The RFUs (relative fluorescence units were measured on EnVision microplate reader (ex. 680 nm, em. 615 nm) and concentration-response curve was plotted using Prism to calculate IC50 (M), pIC50 (−log IC50) and HillSlope value.

For assay [3], the system named is NIH/3T3 cells overexpressing FGFR3 V555M-TACC3 fusion protein. In words: NIH/3T3 FGFR3 V555M-TACC3 cellular phospho-ERK assay (in vitro PD assay). It is filed as cell-based. As to conditions: Mus musculus, NIH3T3; 1-hr incubation, AlphaLISA SureFire Ultra p-ERK1/2 (Thr202/Tyr204); read-out: NIH/3T3 FGFR3 V555M-TACC3 pERK (IC50). The protocol:
NIH/3T3 FGFR3 V555M-TACC3 Cellular Phospho-ERK Assay (In Vitro PD Assay)
as §1, with “V555M-TACC3” for “WT-TACC3”
For orientation: In Alpha technology, singlet oxygen from a donor bead excites a nearby acceptor bead.

T1 sequence (P22607 397-806 limits assumed): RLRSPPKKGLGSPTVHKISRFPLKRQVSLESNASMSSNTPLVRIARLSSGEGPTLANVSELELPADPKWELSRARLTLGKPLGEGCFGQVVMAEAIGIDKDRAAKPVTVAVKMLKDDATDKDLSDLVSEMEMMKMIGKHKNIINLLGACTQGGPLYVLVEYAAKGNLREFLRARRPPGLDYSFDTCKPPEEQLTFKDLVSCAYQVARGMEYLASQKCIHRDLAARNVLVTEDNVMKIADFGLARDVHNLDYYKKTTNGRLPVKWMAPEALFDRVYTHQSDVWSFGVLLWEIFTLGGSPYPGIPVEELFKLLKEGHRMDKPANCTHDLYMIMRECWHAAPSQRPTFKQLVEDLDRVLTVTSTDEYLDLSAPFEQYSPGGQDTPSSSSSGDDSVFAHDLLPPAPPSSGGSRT

On to `C[C@H](Nc1c(-c2nc3ccc(N4CCOCC4)cc3[nH]2)c(=O)[nH]c2ccccc12)c1ncccn1` [Compound 2, (S)-3-(6-morpholino-1H-benzo[d]imidazol-2-yl)-4-((1-(pyrimidin-2-yl)ethyl)amino)-quinolin-2(1H)-one], for which the IC50 in assay [1] was 0.337 nM; in assay [2] it was 1.24 nM; in assay [3] it was 0.946 nM.

Turning to `C[C@@H]1CN(c2ccc3nc(-c4c(N[C@@H](C)c5ccccn5)c5ccccc5[nH]c4=O)[nH]c3c2)C[C@H](C)O1` [Compound 4, 3-(6-((2S,6R)-2,6-dimethylmorpholino)-1H-benzo[d]imidazol-2-yl)-4-(((S)-1-(pyridin-2-yl)ethyl)amino)quinolin-2(1H)-one], the values for the IC50 in assay [1], in assay [2] and in assay [3] were 2.59 nM, 3.87 nM and 1.09 nM, respectively.

For the compound `C[C@@H]1CN(c2ccc3nc(-c4c(N[C@@H](C)c5ccccn5)c5ccccc5[nH]c4=O)[nH]c3c2)C[C@@H](C)O1` [Compound 21, 3-(6-((2R,6R)-2,6-dimethylmorpholino)-1H-benzo[d]imidazol-2-yl)-4-(((S)-1-(pyridin-2-yl)ethyl)amino)quinolin-2(1H)-one], the IC50 in assay [1] worked out at 5.04 nM; in assay [2], 8.41 nM; in assay [3] it was 2.35 nM.

Regarding `C[C@H](Nc1c(-c2nc3ccc(N4CCOCC4)c(F)c3[nH]2)c(=O)[nH]c2ccccc12)c1ccccn1` [Compound 24, (S)-3-(7-fluoro-6-morpholino-1H-benzo[d]imidazol-2-yl)-4-((1-(pyridin-2-yl)ethyl)-amino)quinolin-2(1H)-one], the figures for the IC50 in assay [1], in assay [2] and in assay [3] were 2.18 nM, 13.3 nM and 0.959 nM, respectively.
